# Reference: ChEMBL document CHEMBL1154964, “Acidic elements in histamine H(3) receptor antagonists” (Bioorg Med Chem Lett, 2010)
# Biological target: Histamine H3 receptor (Homo sapiens, UniProt Q9Y5N1)
# Experiment: Displacement of [125I]Iodoproxyfan from human histamine H3 receptor expressed in HEK293 cells after 60 mins by scintillation counting
# Format: cell-based
# Histamine H3 receptor, sequence (Q9Y5N1 whole entry): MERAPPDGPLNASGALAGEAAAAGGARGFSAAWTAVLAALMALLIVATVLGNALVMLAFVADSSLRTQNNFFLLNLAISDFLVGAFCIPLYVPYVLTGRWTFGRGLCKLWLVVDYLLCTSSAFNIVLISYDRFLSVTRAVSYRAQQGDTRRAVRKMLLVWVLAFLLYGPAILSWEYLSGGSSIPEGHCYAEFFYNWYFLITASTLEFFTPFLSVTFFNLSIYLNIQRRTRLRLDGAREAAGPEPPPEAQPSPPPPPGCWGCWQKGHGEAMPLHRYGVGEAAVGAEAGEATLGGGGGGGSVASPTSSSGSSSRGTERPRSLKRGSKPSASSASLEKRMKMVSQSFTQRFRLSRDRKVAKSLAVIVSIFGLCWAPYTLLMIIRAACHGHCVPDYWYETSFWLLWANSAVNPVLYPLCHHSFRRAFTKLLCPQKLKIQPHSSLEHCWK
row,SMILES,Ki
1,O=C(O)c1cn(C2CC2)c2cc(N3CCN(Cc4ccc(OCCCN5CCCCC5)cc4)CC3)c(F)cc2c1=O,2 nM
2,c1cc(C2=NCCN2)ccc1OCCCN1CCCCC1,7.94 nM
3,O=C(O)C1CSC(c2ccc(OCCCN3CCCCC3)cc2)N1 (centres undefined),10 nM
4,COC(=O)C1CSC(c2ccc(OCCCN3CCCCC3)cc2)N1 (centres undefined),3.98 nM

# More lines, in order of falling Ki, values ahead:
row,Ki,SMILES
1,50.1 nM,O=C1NC(=O)C(Cc2ccc(OCCCN3CCCCC3)cc2)S1 (centres undefined)
2,7.94 nM,O=C1NC(=O)/C(=C/c2ccc(OCCCN3CCCCC3)cc2)S1
3,5.01 nM,O=C1NC(=S)S/C1=C\c1ccc(OCCCN2CCCCC2)cc1
4,0.316 nM,CN(CCC=C1c2ccccc2CCc2ccccc21)Cc1ccc(OCCCN2CCCCC2)cc1

# Biological target: T1, Peroxisome proliferator-activated receptor alpha (Homo sapiens, UniProt Q07869)
# T1 sequence (Q07869 whole entry): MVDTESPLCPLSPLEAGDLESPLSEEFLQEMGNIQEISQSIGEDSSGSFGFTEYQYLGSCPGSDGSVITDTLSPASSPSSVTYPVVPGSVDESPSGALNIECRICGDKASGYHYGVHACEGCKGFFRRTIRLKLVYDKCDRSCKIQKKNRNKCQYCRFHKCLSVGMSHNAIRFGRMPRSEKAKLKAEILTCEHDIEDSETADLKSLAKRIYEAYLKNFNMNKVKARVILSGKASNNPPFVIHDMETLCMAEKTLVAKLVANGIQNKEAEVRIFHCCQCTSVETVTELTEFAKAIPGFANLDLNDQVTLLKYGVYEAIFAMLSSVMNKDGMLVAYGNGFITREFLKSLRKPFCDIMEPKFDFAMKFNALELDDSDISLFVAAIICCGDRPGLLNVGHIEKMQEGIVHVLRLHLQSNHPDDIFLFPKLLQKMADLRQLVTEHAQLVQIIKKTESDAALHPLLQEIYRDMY
# Experiment: Agonist activity at human recombinant PPARalpha LBD expressed in african green monkey COS7 cells coexpressing GAL4 by luciferase reporter gene transactivation assay
# Format: functional, cell-based, COS-7
row,EC50,SMILES
1,> 10000 nM,O=C1NC(=S)S/C1=C\c1ccc(OCCCN2CCCCC2)cc1
